Source: ChEMBL document CHEMBL1201862, “PubChem BioAssay data set” (2004)
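In this assay, cells in 96-well plates receive the compound at five concentrations for 48 hours. Endpoints are linearly interpolated between the surrounding concentrations. At the GI50, growth is halved.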 Calls of active or inactive are those of the source. Cut-off read from the data, not from the text of the source: active = GI50 up to about 1.1 µM and inactive = higher.

Assays:
Test in all cases: NCI tumour cell line growth inhibition, 48 h
[1] = tested on: SNB-19
[2] = tested on: CCRF-CEM
[3] = tested on: NCI-H226
[4] = tested on: NCI/ADR-RES
[5] = tested on: A549
[6] = tested on: SK-MEL-5
[7] = tested on: UO-31
[8] = tested on: SW-620
[9] = tested on: 786-0
[10] = tested on: DU-145
[11] = tested on: TK-10
[12] = tested on: SK-MEL-28
[13] = tested on: COLO 205
[14] = tested on: OVCAR-8
[15] = tested on: SF-539
[16] = tested on: SN12C
[17] = tested on: MDA-MB-435
[18] = tested on: M14
[19] = tested on: EKVX
[20] = tested on: RXF 393
[21] = tested on: SK-OV-3
[22] = tested on: CAKI-1
[23] = tested on: UACC-257
[24] = tested on: BT-549
[25] = tested on: NCI-H23
[26] = tested on: SF-295
[27] = tested on: HCC 2998
[28] = tested on: SK-MEL-2
[29] = tested on: LOX IMVI
[30] = tested on: T47D
[31] = tested on: KM12
[32] = tested on: K562
[33] = tested on: MDA-MB-231
[34] = tested on: MDA-N
[35] = tested on: UACC-62
[36] = tested on: Malme-3M
[37] = tested on: PC-3
[38] = tested on: NCI-H460
[39] = tested on: A498
[40] = tested on: IGROV-1
[41] = tested on: OVCAR-4
[42] = tested on: SF-268
[43] = tested on: HOP-62
[44] = tested on: HOP-92
[45] = tested on: U-251
[46] = tested on: NCI-H522
[47] = tested on: HCT-15
[48] = tested on: OVCAR-5
[49] = tested on: HCT-116
[50] = tested on: ACHN
[51] = tested on: OVCAR-3
[52] = tested on: HL-60
[53] = tested on: MOLT-4
[54] = tested on: Hs-578T
[55] = tested on: MCF7
[56] = tested on: SNB-75
[57] = tested on: HT-29
[58] = tested on: RPMI-8226

In the case of `CC1OC(OC2C(O[C@H]3CC[C@@H]4C(=CC[C@@H]5[C@@]4(C)C(=O)C[C@]4(C)[C@@H]([C@H](C)CC[C@@H](O)C(C)(C)O)CC[C@@]54C)C3(C)C)OC(CO)C(O)C2O)C(O)C(O)C1O` (some centres undefined), the GI50 [1] is reported as > 100 µM (inactive), the GI50 [2] is reported as 79.3 µM (inactive) and the GI50 [3] is reported as > 100 µM (inactive). The GI50 [4] was > 100 µM (inactive), the GI50 [5] was > 100 µM (inactive) and the GI50 [6] was > 100 µM (inactive). For the same compound, the GI50 [7] was > 100 µM (inactive), the GI50 [8] was 35.3 µM (inactive) and the GI50 [9] was > 100 µM (inactive). For the same compound, the GI50 [10] was > 100 µM (inactive), the GI50 [11] was > 100 µM (inactive) and the GI50 [12] was > 100 µM (inactive). For the same compound, the GI50 [13] was > 100 µM (inactive), the GI50 [14] was > 100 µM (inactive) and the GI50 [15] was > 100 µM (inactive). The GI50 [16] was > 100 µM (inactive), the GI50 [17] was > 100 µM (inactive) and the GI50 [18] was > 100 µM (inactive). For the same compound, the GI50 [19] was > 100 µM (inactive), the GI50 [20] was > 100 µM (inactive) and the GI50 [21] was > 100 µM (inactive). For the same compound, the GI50 [22] was > 100 µM (inactive), the GI50 [23] was > 100 µM (inactive) and the GI50 [24] was > 100 µM (inactive). The GI50 [25] was > 100 µM (inactive), the GI50 [26] was > 100 µM (inactive) and the GI50 [27] was > 100 µM (inactive). For the same compound, the GI50 [28] was > 100 µM (inactive), the GI50 [29] was > 100 µM (inactive) and the GI50 [30] was > 100 µM (inactive). The GI50 [31] was > 100 µM (inactive), the GI50 [32] was 49 µM (inactive) and the GI50 [33] was > 100 µM (inactive). The GI50 [34] was > 100 µM (inactive), the GI50 [35] was > 100 µM (inactive) and the GI50 [36] was > 100 µM (inactive). For the same compound, the GI50 [37] was > 100 µM (inactive), the GI50 [38] was > 100 µM (inactive) and the GI50 [39] was > 100 µM (inactive). For the same compound, the GI50 [40] was 75.5 µM (inactive), the GI50 [41] was > 100 µM (inactive) and the GI50 [42] was > 100 µM (inactive). For the same compound, the GI50 [43] was > 100 µM (inactive), the GI50 [44] was > 100 µM (inactive) and the GI50 [45] was > 100 µM (inactive). The GI50 [46] was > 100 µM (inactive), the GI50 [47] was > 100 µM and the GI50 [48] was > 100 µM (inactive). The GI50 [49] was > 100 µM (inactive), the GI50 [50] was > 100 µM (inactive) and the GI50 [51] was > 100 µM (inactive). The GI50 [52] was > 100 µM (inactive), the GI50 [53] was 37.2 µM (inactive) and the GI50 [54] was > 100 µM (inactive). For the same compound, the GI50 [55] was > 100 µM (inactive), the GI50 [56] was > 100 µM (inactive) and the GI50 [57] was > 100 µM (inactive).
For `COC(=O)C1=COC(C)C2C[n+]3ccc4c([nH]c5ccccc54)c3CC12` (centres undefined), the GI50 [1] was > 100 µM (inactive), the GI50 [2] was > 100 µM (inactive) and the GI50 [3] was 44.9 µM (inactive). The GI50 [4] was > 100 µM (inactive), the GI50 [5] was > 100 µM (inactive) and the GI50 [6] was > 100 µM (inactive). For the same compound, the GI50 [7] was > 100 µM (inactive), the GI50 [8] was > 100 µM (inactive) and the GI50 [9] was > 100 µM (inactive). The GI50 [10] was > 100 µM (inactive), the GI50 [11] was > 100 µM (inactive) and the GI50 [12] was > 100 µM (inactive). For the same compound, the GI50 [13] was > 100 µM (inactive), the GI50 [14] was > 100 µM (inactive) and the GI50 [15] was > 100 µM (inactive). The GI50 [16] was > 100 µM (inactive), the GI50 [17] was > 100 µM (inactive) and the GI50 [18] was > 100 µM (inactive). For the same compound, the GI50 [19] was > 100 µM (inactive), the GI50 [21] was > 100 µM (inactive) and the GI50 [22] was > 100 µM (inactive). The GI50 [23] was > 100 µM (inactive), the GI50 [24] was > 100 µM (inactive) and the GI50 [25] was > 100 µM (inactive). For the same compound, the GI50 [26] was > 100 µM (inactive), the GI50 [27] was > 100 µM (inactive) and the GI50 [28] was > 100 µM (inactive). The GI50 [29] was > 100 µM (inactive), the GI50 [30] was 36.6 µM (inactive) and the GI50 [31] was > 100 µM (inactive). For the same compound, the GI50 [32] was > 100 µM (inactive), the GI50 [33] was > 100 µM (inactive) and the GI50 [34] was > 100 µM (inactive). For the same compound, the GI50 [35] was > 100 µM (inactive), the GI50 [37] was > 100 µM (inactive) and the GI50 [38] was 36.2 µM (inactive). The GI50 [39] was > 100 µM (inactive), the GI50 [40] was 49.1 µM (inactive) and the GI50 [41] was 81.7 µM (inactive). The GI50 [42] was > 100 µM (inactive), the GI50 [43] was > 100 µM (inactive) and the GI50 [44] was > 100 µM (inactive). For the same compound, the GI50 [45] was > 100 µM (inactive), the GI50 [46] was 54.5 µM (inactive) and the GI50 [47] was 75.2 µM. The GI50 [48] was > 100 µM (inactive), the GI50 [49] was > 100 µM (inactive) and the GI50 [50] was > 100 µM (inactive). For the same compound, the GI50 [51] was > 100 µM (inactive), the GI50 [52] was > 100 µM (inactive) and the GI50 [53] was 38.9 µM (inactive). The GI50 [54] was > 100 µM (inactive), the GI50 [55] was 42.7 µM (inactive) and the GI50 [58] was > 100 µM (inactive). For the same compound, the GI50 [56] was > 100 µM (inactive) and the GI50 [57] was > 100 µM (inactive).
In the case of `N=C(N)C(/N=N\c1ccccc1)C(N)=O` (centres undefined), the GI50 [1] is reported as > 100 µM (inactive), the GI50 [3] is reported as > 100 µM (inactive) and the GI50 [4] is reported as > 100 µM (inactive). The GI50 [5] was > 100 µM (inactive), the GI50 [6] was > 100 µM (inactive) and the GI50 [7] was > 100 µM (inactive). The GI50 [8] was > 100 µM (inactive), the GI50 [9] was > 100 µM (inactive) and the GI50 [10] was > 100 µM (inactive). For the same compound, the GI50 [11] was 96.4 µM (inactive), the GI50 [12] was > 100 µM (inactive) and the GI50 [13] was > 100 µM (inactive). For the same compound, the GI50 [14] was > 100 µM (inactive), the GI50 [16] was > 100 µM (inactive) and the GI50 [17] was 83.4 µM (inactive). For the same compound, the GI50 [18] was > 100 µM (inactive), the GI50 [19] was 95.7 µM (inactive) and the GI50 [20] was 87.3 µM (inactive). The GI50 [21] was > 100 µM (inactive), the GI50 [22] was 64.7 µM (inactive) and the GI50 [23] was > 100 µM (inactive). The GI50 [24] was > 100 µM (inactive), the GI50 [25] was > 100 µM (inactive) and the GI50 [26] was 62.8 µM (inactive). For the same compound, the GI50 [27] was > 100 µM (inactive), the GI50 [28] was 66.1 µM (inactive) and the GI50 [29] was 83 µM (inactive). For the same compound, the GI50 [30] was 57.7 µM (inactive), the GI50 [31] was 59.4 µM (inactive) and the GI50 [32] was 35.9 µM (inactive). For the same compound, the GI50 [33] was > 100 µM (inactive), the GI50 [34] was > 100 µM (inactive) and the GI50 [35] was 43.3 µM (inactive). The GI50 [36] was > 100 µM (inactive), the GI50 [37] was > 100 µM (inactive) and the GI50 [38] was > 100 µM (inactive). The GI50 [39] was 66.5 µM (inactive), the GI50 [40] was > 100 µM (inactive) and the GI50 [41] was 53.7 µM (inactive). The GI50 [42] was > 100 µM (inactive), the GI50 [43] was > 100 µM (inactive) and the GI50 [44] was > 100 µM (inactive). The GI50 [45] was > 100 µM (inactive), the GI50 [46] was > 100 µM (inactive) and the GI50 [47] was 83.8 µM. The GI50 [48] was > 100 µM (inactive), the GI50 [49] was > 100 µM (inactive) and the GI50 [50] was > 100 µM (inactive). The GI50 [51] was > 100 µM (inactive), the GI50 [52] was > 100 µM (inactive) and the GI50 [53] was > 100 µM (inactive). For the same compound, the GI50 [54] was > 100 µM (inactive), the GI50 [55] was > 100 µM (inactive) and the GI50 [58] was > 100 µM (inactive). For the same compound, the GI50 [56] was > 100 µM (inactive) and the GI50 [57] was > 100 µM (inactive).
